Experiment [1] deals with Diamondback Moth (Plutella xylostella). In words: Insecticidal test for diamondback moth (cabbage leaf dip). It is filed as in vivo. To be noted: foliar, 72 h, cabbage leaf immersed 30 seconds, 2nd-instar larvae, 25° C., three days after. On the procedure: Insecticidal Test for Diamondback Moth (Plutella xylostella)
A cabbage leaf pieces was immersed in a solution prepared by diluting a test compound to a predetermined concentration for 30 seconds, and then dried in air. Then, the leaf piece was placed in a polyethylene cup of 7 cm-size in which 2nd-instar larvae of […] were placed. The cup was allowed to stand in a thermostatic chamber at 25° C. Three days after, the numbers of living and dead larvae were counted. The test was carried out in two replications each containing five larvae.

Experiment [2] has as its system Common Cutworm (Spodoptera litura). In words: Insecticidal test for common cutworm (cabbage leaf dip). To be noted: foliar, 72 h, cabbage leaf immersed 30 seconds, 2nd-instar larvae, 25° C., three days after. It is filed as in vivo. The protocol:
Insecticidal Test for Common Cutworm (Spodoptera litura)
A cabbage leaf piece was immersed in a solution prepared by diluting a test compound to a predetermined concentration for 30 seconds, and then dried in air. Then, the cabbage leaf piece was placed in a polyethylene cup of 7 cm-size in which 2nd-instar larvae of common cutworm were placed. The cup was allowed to stand in a thermostatic chamber at 25° C. Three days after, the numbers of living and dead larvae were counted. The test was carried out in two replications each containing five larvae.

Structures are written as SMILES.

Consider `O=C(Nc1cccc(C(=O)Nc2ccc(C(F)(F)F)cc2C(F)(F)F)c1)OCC(F)(F)C(F)(F)F` [Compound No. 250, N-(2,4-bistrifluoromethylphenyl) 3-[(2,2,3,3,3-pentafluoro-n-propyloxy)carbonylamino]benzamide], for which the mortality at 1000 ppm in experiment [1] and in experiment [2] was not below 70% in each case.

The term mortality denotes the share of the test organisms that died. The low end stands for a weak lethal effect, the high end for a strong lethal effect.

For the origin of these results see patent publication US9089133B2, “Insecticide for agricultural or horticultural use and method of use thereof” (MITSUI CHEMICALS, INC., priority 2003, dated 2015).
